This is an account of results in patent US20250206761A1, “HALOINDOLE MACROCYCLIC COMPOUNDS FOR THE TREATMENT OF CANCER” (Hoffmann-La Roche Inc., priority 2022, published 2025).

As a reminder, the IC50 is the concentration that inhibits the measured activity by half.

Assay [1] deals with NCI-H358 (ATCC-CRL5807) cells. In words: Cell viability assay, G12C (NCI-H358). It is filed as cell-based, human. The following applies: Homo sapiens; KRAS cell viability, NCI-H358, 72 hrs, Cell Counting Kit-8. The gist of the method:
(§1)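 Read-out is CCK-8 absorbance (OD450 minus OD650, 2 hrs after reagent), reflecting NADPH after 72 hrs of compound exposure in 0.5% DMSO. Seeding density was 5,000 cells/well for NCI-H358 and 2,000 for AGS and SW620. IC50 derived by 4-parameter sigmoidal fitting.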

In assay [2] the test system is phosphorylation of ERK, KRAS G12C in NCJ-H358 cells. In words: pERK inhibition assay, KRAS G12C. The format is cell-based, human. The note with it: Homo sapiens, 4 hours. The gist of the method: (§2)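 Read-out is OD450 from a TMB colorimetric cell ELISA using a phospho-ERK-specific antibody and HRP-linked secondary. Compounds were incubated with the cells for 4 hours at 0.5% DMSO before fixation and permeabilization. IC50 values come from 4-parameter concentration-response fitting.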

The next assay has as its target KRAS G12C-BRAF complex (Homo sapiens (Human), UniProt P01116+P62937, G12C). In words: KRAS-BRAF with CYPA (500 nM) interaction assay (TR-FRET), G12C. The format is biochemical. For orientation: Time-resolved FRET reads energy transfer from a long-lived donor to a nearby acceptor.
A further assay concerns SW620 (ATCC-CCL-227). In words: Cell viability assay, G12V (SW620). The note with it: Homo sapiens, SW-620; KRAS cell viability, SW620, 72 hrs, Cell Counting Kit-8. It is filed as cell-based, human. The gist of the method: as §1
Assay [3] has as its system phosphorylation of ERK, KRAS G12D in AGS cells. Nature of the assay: pERK inhibition assay, KRAS G12D. It is filed as cell-based, human. The following applies: Homo sapiens, 4 hours. How it is done: This assay is to measure the ability of test compounds in inhibiting the phosphorylation of ERK, the downstream signaling of KRAS G12C in NCJ-H358 cells, KRAS G12D in AGS cells, and KRAS G12V in SW620. NCJ-H358 (ATCC-CRL5807) cells, AGS (ATCC-CRL-1739) cells, SW620 (ATCC-CCL-227) cells were all grown and maintained using RPMI-1640 medium (Thermo Fisher Scientific) with 10% fetal bovine serum and 1% penicillin/streptomycin. On the day prior to compound addition, cells were plated in tissue culture-treated 96 well plates (Corning-3699) at a density of 30,000 cell/well, 20,000 cell/well, 30,000 cell/well for NCJ-H358, AGS and SW620 respectively, and allowed for attachment overnight. Diluted compounds were then added in a final concentration of 0.5% DMSO. After 4 hours of incubation, the medium was removed, 100 μL of 4% formaldehyde was added, and the assay plates were incubated at room temperature for 20 minutes. The plates were then washed once with phosphate buffered saline (PBS), and permeabilized with 100 μL of chilled methanol for 10 minutes. Non-specific antibody binding to the plates was blocked using 50 μL 1×BSA blocking buffer (Thermo-37520, 10-fold dilution by Phosphate-Buffered Saline Tween (PBST) for at least 1 hour at room temperature.
The amount of phosphor-ERK was determined using an antibody specific for phosphorylated form of ERK. Primary antibody (pERK, CST-4370, Cell Signaling Technology) was diluted 1:300 in blocking buffer, with 50 μL aliquoted to each well, and incubated overnight at 4′° C. Cells was washed five times for 5 minutes with PBST. Secondary antibody ([…] anti-rabbit IgG, CST-7074, Cell Signaling Technology) was diluted 1:1000 in blocking buffer, and 50 μL was added to each well and incubated 1-2 hrs at room temperature. Cells was washed 5 times for 5 minutes with PBST, 100 μL TMB ELISA substrate (abcam-ab171523) were added and gently shake for 20 minutes. 50 μL stop solution (abcam-ab171529) were added, and then read the signal (OD450) by EnVision.
IC50 was determined by fitting a 4-parameter sigmoidal concentration response model.

The subject of assay [4] is AGS (ATCC-CRL-1739) cells. Nature of the assay: Cell viability assay, G12D (AGS). It is filed as cell-based, human. The note with it: Homo sapiens, KRAS cell viability, 72 hrs, Cell Counting Kit-8. The essentials:
as §1
(Tetrazolium assays rely on reduction of a dye to a coloured formazan, in cell work by metabolically active cells.)

Assay [5] addresses KRAS G12D binding to BRAF (Homo sapiens (Human), UniProt P01116+P62937, G12D). In words: KRAS-BRAF with CYPA (500 nM) interaction assay (TR-FRET), G12D. The format is biochemical.
The target in assay [6] is KRAS G12V binding to BRAF (Homo sapiens (Human), UniProt P01116+P62937, G12V). In words: KRAS-BRAF with CYPA (500 nM) interaction assay (TR-FRET), G12V. It is filed as biochemical. The essentials: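 A TR-FRET assay measured how compound, in the presence of CYPA, disrupts binding of GMPPNP-loaded 6His-KRAS G12V to BRAF. The buffer contained 25 mM HEPES PH=7.4, 0.002% Tween20, 0.1% BSA, 100 mM NaCl, 5 mM MgCl2 and 10 μM GMPPNP. Compounds ran as a 16-point 3-fold dilution series from 10 μM for 3 hours.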
KRAS G12V binding to BRAF, sequence (P01116-2 other isoform, or with tags, fused parts or gaps G12V): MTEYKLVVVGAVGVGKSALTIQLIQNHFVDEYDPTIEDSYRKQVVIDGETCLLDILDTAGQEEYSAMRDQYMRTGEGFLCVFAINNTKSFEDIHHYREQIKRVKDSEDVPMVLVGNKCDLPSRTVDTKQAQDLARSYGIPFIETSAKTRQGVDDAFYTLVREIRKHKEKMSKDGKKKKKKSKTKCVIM
KRAS G12V binding to BRAF, sequence (P62937 whole entry): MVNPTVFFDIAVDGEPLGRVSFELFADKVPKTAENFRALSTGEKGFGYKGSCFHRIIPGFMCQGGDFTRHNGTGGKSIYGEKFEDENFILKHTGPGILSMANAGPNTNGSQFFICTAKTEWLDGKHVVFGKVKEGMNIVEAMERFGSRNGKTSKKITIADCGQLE

In assay [7] the test system is phosphorylation of ERK, KRAS G12V in SW620. Nature of the assay: pERK inhibition assay, KRAS G12V. The note with it: Homo sapiens, SW-620, SW620, 4 hours. It is filed as cell-based, human. The essentials:
as §2

KRAS G12C-BRAF complex, sequence (P01116-2 other isoform, or with tags, fused parts or gaps G12C): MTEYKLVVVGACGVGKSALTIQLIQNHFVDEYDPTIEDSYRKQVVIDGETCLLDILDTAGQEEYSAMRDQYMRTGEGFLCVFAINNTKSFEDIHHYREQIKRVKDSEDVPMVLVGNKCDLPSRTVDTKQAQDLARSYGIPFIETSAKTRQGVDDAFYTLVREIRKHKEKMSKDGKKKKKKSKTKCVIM
KRAS G12C-BRAF complex, sequence (P62937 whole entry): as the sequence (P62937 whole entry) above
KRAS G12D binding to BRAF, sequence (P01116-2 other isoform, or with tags, fused parts or gaps G12D): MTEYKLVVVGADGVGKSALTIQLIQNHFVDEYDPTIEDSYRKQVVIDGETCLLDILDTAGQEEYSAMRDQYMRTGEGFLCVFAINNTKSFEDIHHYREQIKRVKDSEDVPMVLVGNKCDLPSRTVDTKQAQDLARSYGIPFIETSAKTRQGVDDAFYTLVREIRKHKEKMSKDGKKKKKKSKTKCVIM
KRAS G12D binding to BRAF, sequence (P62937 whole entry): as the sequence (P62937 whole entry) above

As to `CO[C@@H](C)c1ncc(N2CCN(C)CC2)cc1-c1c2c3cc(c(F)cc3n1CC(F)(F)F)-c1csc(n1)C[C@H](NC(=O)[C@H](C(C)C)N(C)C(=O)[C@H]1CCN(C(=O)[C@H](F)Cl)C1)C(=O)N1CCC[C@H](N1)C(=O)OCC(C)(C)C2` (atropisomer, axis not shown; (M)) [Example 2, (3S)-1-[(2R)-2-chloro-2-fluoro-acetyl]-N-[(1S)-1-[[(7S,13S)-24-fluoro-(20M)-20-[2-[(1S)-1-methoxyethyl]-5-(4-methylpiperazin-1-yl)-3-pyridyl]-17,17-dimethyl-8,14-dioxo-21-(2,2,2-trifluoroethyl)-15-oxa-4-thia-9,21,27,28-tetrazapentacyclo[17.5.2.1^2,5.1^9,13.0^22,26]octacosa-1(25),2,5(28),19,22(26),23-hexaen-7-yl]carbamoyl]-2-methyl-propyl]-N-methyl-pyrrolidine-3-carboxamide], the IC50 in assay [1] came to 2 nM; in assay [2] it was 2 nM; at KRAS G12C-BRAF complex it was 89 nM; with SW620 (ATCC-CCL-227) it was 175 nM; in assay [3] it was 38 nM; in assay [4], 822 nM. Also, the 50% inhibitory concentration (IC50) in [5] turned out to be 3980 nM; in assay [6], 1860 nM; in assay [7], 20 nM.

With `CCn1c(-c2cc(N3CCN(C)CC3)cnc2[C@H](C)OC)c2c3cc(c(F)cc31)-c1csc(n1)C[C@H](NC(=O)[C@H](C(C)C)N(C)C(=O)[C@H]1CCN(C(=O)[C@H](F)Cl)C1)C(=O)N1CCC[C@H](N1)C(=O)OCC(C)(C)C2` (atropisomer, axis not shown; (M)) [Example 32, (3S)-1-[(2R)-2-chloro-2-fluoro-acetyl]-N-[(1S)-1-[[(7S,13S)-21-ethyl-24-fluoro-(20M)-20-[2-[(1S)-1-methoxyethyl]-5-(4-methylpiperazin-1-yl)-3-pyridyl]-17,17-dimethyl-8,14-dioxo-15-oxa-4-thia-9,21,27,28-tetrazapentacyclo[17.5.2.1^2,5.1^9,13.0^22,26]octacosa-1(25),2,5(28),19,22(26),23-hexaen-7-yl]carbamoyl]-2-methyl-propyl]-N-methyl-pyrrolidine-3-carboxamide], the 50% inhibitory concentration (IC50) in assay [1] was less than 1 nM; in assay [2], 1 nM; at KRAS G12C-BRAF complex, 56 nM; with SW620 (ATCC-CCL-227) it was 430 nM; in assay [3], 14 nM; in assay [4] it was 792 nM. The IC50 in assay [5] is greater than 10000 nM; in assay [6] it was greater than 10000 nM; in assay [7], 21 nM.

For the molecule `CO[C@@H](C)c1ncc(N2CCN(CC(F)(F)F)CC2)cc1-c1c2c3cc(c(F)cc3n1CC(F)(F)F)-c1csc(n1)C[C@H](NC(=O)[C@H](C(C)C)N1CCC3(CN(C(=O)[C@H](F)Cl)C3)C1=O)C(=O)N1CCC[C@H](N1)C(=O)OCC(C)(C)C2` (atropisomer, axis not shown; (M)) [Example 46, (2S)-2-[2-[(2R)-2-chloro-2-fluoro-acetyl]-5-oxo-2,6-diazaspiro[3.4]octan-6-yl]-N-[(7S,13S)-24-fluoro-(20M)-20-[2-[(1S)-1-methoxyethyl]-5-[4-(2,2,2-trifluoroethyl)piperazin-1-yl]-3-pyridyl]-17,17-dimethyl-8,14-dioxo-21-(2,2,2-trifluoroethyl)-15-oxa-4-thia-9,21,27,28-tetrazapentacyclo[17.5.2.1^2,5.1^9,13.0^22,26]octacosa-1(25),2,5(28),19,22(26),23-hexaen-7-yl]-3-methyl-butanamide], the IC50 in assay [1] came to 3 nM; in [2] it was 9 nM; against KRAS G12C-BRAF complex, 129 nM; in the assay with SW620 (ATCC-CCL-227), 168 nM; in assay [3], 299 nM; in [4], 300 nM. For the same molecule, the figures for the IC50 in [5], in [6] and in [7] were 1060 nM, 1230 nM and 627 nM, respectively.

As to `CCn1c(-c2cc(N3CCN(C)CC3)cnc2[C@H](C)OC)c2c3cc(c(F)cc31)-c1csc(n1)C[C@H](NC(=O)[C@H](C(C)C)N1CC[C@@]3(CCN(C(=O)[C@H](F)Cl)C3)C1=O)C(=O)N1CCC[C@H](N1)C(=O)OCC(C)(C)C2` (atropisomer, axis not shown; (M)) [Example 30, (2S)-2-[(5R)-7-[(2R)-2-chloro-2-fluoro-acetyl]-1-oxo-2,7-diazaspiro[4.4]nonan-2-yl]-N-[(7S,13S)-21-ethyl-24-fluoro-(20M)-20-[2-[(1S)-1-methoxyethyl]-5-(4-methylpiperazin-1-yl)-3-pyridyl]-17,17-dimethyl-8,14-dioxo-15-oxa-4-thia-9,21,27,28-tetrazapentacyclo[17.5.2.1^2,5.1^9,13.0^22,26]octacosa-1(25),2,5(28),19,22(26),23-hexaen-7-yl]-3-methyl-butanamide], the IC50 in assay [1] was less than 1 nM; in [2], 2 nM; against KRAS G12C-BRAF complex it was 38 nM; in the assay on SW620 (ATCC-CCL-227) it was 1050 nM; in assay [3] it was 21 nM; in assay [4], 435 nM. Besides, the concentration for half-maximal inhibition (IC50) was greater than 10000 nM in assay [5], greater than 10000 nM in assay [6] and 100 nM in assay [7].

As for `CCn1c(-c2cc(N3CCN(CC(F)(F)F)CC3)cnc2[C@H](C)OC)c2c3cc(c(F)cc31)-c1csc(n1)C[C@H](NC(=O)[C@H](C(C)C)N(C)C(=O)[C@H]1CCN(C(=O)[C@H](F)Cl)C1)C(=O)N1CCC[C@H](N1)C(=O)OCC(C)(C)C2` (atropisomer, axis not shown; (M)) [Example 33, (3S)-1-[(2R)-2-chloro-2-fluoro-acetyl]-N-[(1S)-1-[[(7S,13S)-21-ethyl-24-fluoro-(20M)-20-[2-[(1S)-1-methoxyethyl]-5-[4-(2,2,2-trifluoroethyl)piperazin-1-yl]-3-pyridyl]-17,17-dimethyl-8,14-dioxo-15-oxa-4-thia-9,21,27,28-tetrazapentacyclo[17.5.2.1^2,5.1^9,13.0^22,26]octacosa-1(25),2,5(28),19,22(26),23-hexaen-7-yl]carbamoyl]-2-methyl-propyl]-N-methyl-pyrrolidine-3-carboxamide], the concentration for half-maximal inhibition (IC50) was less than 1 nM in assay [1]; 4 nM in assay [2]; 18 nM on KRAS G12C-BRAF complex; 39 nM in the assay with SW620 (ATCC-CCL-227); 19 nM in [3]; 338 nM in [4]. Besides, the figures for the IC50 in assay [5], in assay [6] and in [7] were greater than 10000 nM, greater than 10000 nM and 8 nM, respectively.
